The record followed here is patent publication US7902224B2, “Tetrahydro-naphthalene derivatives as glucocorticoid receptor modulators” (Glaxo Group Limited, priority 2004, dated 2011).

Bounds are passed on as bounds.

In assay [1] the target is T1, glucocorticoid receptor (Homo sapiens, UniProt P04150).
T1 construct: purchased Pan Vera (Madison, Wis., USA)
T1 sequence (P04150 1-777): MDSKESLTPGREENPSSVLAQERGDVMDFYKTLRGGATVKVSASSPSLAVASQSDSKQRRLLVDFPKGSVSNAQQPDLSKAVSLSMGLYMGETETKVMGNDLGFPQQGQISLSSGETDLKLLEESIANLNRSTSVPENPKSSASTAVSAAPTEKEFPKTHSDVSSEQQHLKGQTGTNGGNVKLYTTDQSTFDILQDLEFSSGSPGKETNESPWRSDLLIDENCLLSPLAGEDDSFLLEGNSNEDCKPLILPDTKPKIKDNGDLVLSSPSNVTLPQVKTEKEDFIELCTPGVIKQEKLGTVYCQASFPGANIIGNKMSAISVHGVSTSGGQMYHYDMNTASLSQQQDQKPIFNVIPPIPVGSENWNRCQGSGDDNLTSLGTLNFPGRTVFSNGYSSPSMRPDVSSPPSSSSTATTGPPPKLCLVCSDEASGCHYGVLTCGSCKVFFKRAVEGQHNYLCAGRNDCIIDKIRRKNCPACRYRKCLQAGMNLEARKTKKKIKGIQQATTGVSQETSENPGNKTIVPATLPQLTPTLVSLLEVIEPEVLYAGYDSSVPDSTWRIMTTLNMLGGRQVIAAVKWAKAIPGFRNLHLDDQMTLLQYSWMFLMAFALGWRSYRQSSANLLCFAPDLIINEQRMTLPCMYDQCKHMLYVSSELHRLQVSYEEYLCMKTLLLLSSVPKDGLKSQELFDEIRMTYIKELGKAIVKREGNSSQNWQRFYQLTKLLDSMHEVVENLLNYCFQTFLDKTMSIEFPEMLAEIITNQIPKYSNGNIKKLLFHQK
In words: Glucocorticoid receptor binding assay (fluorescence polarisation competition). The conditions noted are these: displacement of fluorescent glucocorticoid, 22° C., 2 hours; read-out: pIC50 glucocorticoid receptor binding assay (converted). The procedure:
Glucocorticoid Receptor Binding Assay
The ability of compounds to bind to the glucocorticoid receptor was determined by assessing their ability to compete with fluorescent-labelled glucocortioid using a kit supplied by Pan Vera (Madison, Wis., USA) or using in house reagents. Compounds were solvated and diluted in DMSO, and transferred directly into assay plates. Fluorescent glucocorticoid and partially purified glucocorticoid receptor with a stabilisation peptide were added to the plates and incubated at 22° C. for 2 hours in the dark. Binding of the compound was assessed by analysing the displacement of fluorescent ligand by measuring the decrease in fluorescence polarisation signal from the mixture.

Assay [2] has as its system NFkB activity. The experiment in a line: Glucocorticoid mediated transrepression of NFkB activity (A549 ELAM promoter alkaline phosphatase reporter, TNFα stimulated). It is filed as cell-based. The conditions noted are these: A549 cells, 3 ng/ml human recombinant TNFα, 16 hours; read-out: pIC50 NFkB assay (converted). From the text: Glucocorticoid mediated Transrepression of NFkB activity.
Human A549 lung epithelial cells were engineered to contain a secreted placental alkaline phosphatase gene under the control of the distal region of the NFkB dependent ELAM promoter as previously described in Ray, K. P., Farrow, S., Daly, M., Talabot, F. and Searle, N. “Induction of the E-selectin promoter by interleukin 1 and tumour necrosis factor alpha, and inhibition by glucocorticoids” Biochemical Journal. 1997 328 707-15.
Compounds were solvated and diluted in DMSO, and transferred directly into assay plates such that the final concentration of DMSO was 0.7%. Following the addition of cells (40K per well), plates were incubated for 1 hr prior to the addition of 3 ng/ml human recombinant TNFα. Following continued incubation for 16 hours, alkaline phosphatase activity was determined by measuring the change in optical density at 405 nm with time following the addition of 0.7 volumes of assay buffer (1 mg/ml p-nitrophenylphosphate dissolved in 1 M diethanolamine, 0.28M NaCl, 0.5 mM MgCl2).

The test system of assay [3] is MMTV driven gene expression. The experiment in a line: Glucocorticoid mediated transactivation of MMTV driven gene expression (luciferase reporter). It is filed as cell-based, Human. The conditions noted are these: A549 or MG63 cells, 6 hr incubation. From the text: Glucocorticoid Mediated Transactivation of MMTV Driven Gene Expression
Human A549 lung epithelial cells or human MG63 osteosarcoma were engineered to contain a renialla luciferase gene under the control of the distal region of the LTR from the mouse mammary tumour virus as previously described (Austin, R. H., Maschera, B., Walker, A., Fairbairn, L., Meldrum, E., Farrow, S. and Uings, I. J. Mometasone furoate is a less specific glucocorticoid than fluticasone propionate. European Respiratory Journal 2002 20 1386-1392).
Compounds were solvated and diluted in DMSO, and transferred directly into assay plates such that the final concentration of DMSO was 0.7%. Following the addition of cells (40K per well), plates were incubated for 6 hr. Luciferase activity was determined using the Firelight kit (Packard, Pangbourne, UK).

Regarding `CCC1(CC(O)(CNc2cccc3nc(C)ccc23)C(F)(F)F)CCCc2ccccc21` (single isomer, unassigned) [Example 5-D1, 3-(1-Ethyl-1,2,3,4-tetrahydro-1-naphthalenyl)-1,1,1-trifluoro-2-[[(2-methyl-5-quinolinyl)amino]methyl]-2-propanol], the figures for the IC50 in assay [1] and in assay [2] were below 0.1 µM and below 0.0316 µM, respectively. In assay [3], the “efficacy in the MMTV transactivation assay compared to the NFkB assay” value is given as “reduced efficacy”.
